Results taken from patent US11040981B2, “Pyrrolotriazine compounds and methods of inhibiting TAM kinases” (Syros Pharmaceuticals, Inc., priority 2017, dated 2021).

Columns and labels:
[1] = target: T1, AXL (Homo sapiens, UniProt P30530); assay: TR-FRET kinase activity assay, AXL; type: biochemical; conditions: ATP at Km, 60 minutes
T1 sequence (P30530 26-894): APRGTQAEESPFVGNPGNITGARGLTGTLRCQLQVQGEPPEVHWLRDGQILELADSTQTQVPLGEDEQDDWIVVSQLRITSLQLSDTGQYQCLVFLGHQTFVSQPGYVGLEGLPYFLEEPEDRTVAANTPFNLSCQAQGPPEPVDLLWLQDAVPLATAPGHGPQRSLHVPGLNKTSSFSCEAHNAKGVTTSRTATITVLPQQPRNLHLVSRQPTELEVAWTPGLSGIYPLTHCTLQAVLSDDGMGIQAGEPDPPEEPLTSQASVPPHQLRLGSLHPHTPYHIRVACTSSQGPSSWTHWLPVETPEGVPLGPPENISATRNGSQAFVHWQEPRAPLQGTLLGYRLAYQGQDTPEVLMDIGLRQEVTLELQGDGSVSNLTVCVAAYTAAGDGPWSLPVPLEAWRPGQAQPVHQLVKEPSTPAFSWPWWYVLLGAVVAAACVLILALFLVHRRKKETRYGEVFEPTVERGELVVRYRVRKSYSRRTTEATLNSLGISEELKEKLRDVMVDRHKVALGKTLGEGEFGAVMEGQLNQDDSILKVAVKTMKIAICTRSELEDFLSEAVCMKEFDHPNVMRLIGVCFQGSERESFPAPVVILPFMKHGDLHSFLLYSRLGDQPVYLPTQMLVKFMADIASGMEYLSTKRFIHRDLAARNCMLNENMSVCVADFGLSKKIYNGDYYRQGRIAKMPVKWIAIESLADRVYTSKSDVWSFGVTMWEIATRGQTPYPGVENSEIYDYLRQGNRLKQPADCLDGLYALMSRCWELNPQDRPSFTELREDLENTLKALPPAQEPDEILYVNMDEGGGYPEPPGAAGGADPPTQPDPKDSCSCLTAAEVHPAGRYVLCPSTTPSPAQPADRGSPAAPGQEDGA
In short: (§1)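 IC50 reflects the drop in TR-FRET between Eu anti-phosphotyrosine antibody and labelled peptide after a 60-minute room-temperature reaction. Buffer was 50 mM HEPES pH 7.5 with 10 mM MgCl2, 1 mM EGTA, 0.01% Brij 35 and 1 mM DTT, with ATP at Km per enzyme and EDTA quench.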

[2] = target: T2, MERTK (Homo sapiens, UniProt Q12866); assay: TR-FRET kinase activity assay, MERTK; type: biochemical; conditions: for IC50: TR-FRET activity assay, ATP at Km, 60 minutes, read-out: Mer IC50
T2 sequence (Q12866 21-999): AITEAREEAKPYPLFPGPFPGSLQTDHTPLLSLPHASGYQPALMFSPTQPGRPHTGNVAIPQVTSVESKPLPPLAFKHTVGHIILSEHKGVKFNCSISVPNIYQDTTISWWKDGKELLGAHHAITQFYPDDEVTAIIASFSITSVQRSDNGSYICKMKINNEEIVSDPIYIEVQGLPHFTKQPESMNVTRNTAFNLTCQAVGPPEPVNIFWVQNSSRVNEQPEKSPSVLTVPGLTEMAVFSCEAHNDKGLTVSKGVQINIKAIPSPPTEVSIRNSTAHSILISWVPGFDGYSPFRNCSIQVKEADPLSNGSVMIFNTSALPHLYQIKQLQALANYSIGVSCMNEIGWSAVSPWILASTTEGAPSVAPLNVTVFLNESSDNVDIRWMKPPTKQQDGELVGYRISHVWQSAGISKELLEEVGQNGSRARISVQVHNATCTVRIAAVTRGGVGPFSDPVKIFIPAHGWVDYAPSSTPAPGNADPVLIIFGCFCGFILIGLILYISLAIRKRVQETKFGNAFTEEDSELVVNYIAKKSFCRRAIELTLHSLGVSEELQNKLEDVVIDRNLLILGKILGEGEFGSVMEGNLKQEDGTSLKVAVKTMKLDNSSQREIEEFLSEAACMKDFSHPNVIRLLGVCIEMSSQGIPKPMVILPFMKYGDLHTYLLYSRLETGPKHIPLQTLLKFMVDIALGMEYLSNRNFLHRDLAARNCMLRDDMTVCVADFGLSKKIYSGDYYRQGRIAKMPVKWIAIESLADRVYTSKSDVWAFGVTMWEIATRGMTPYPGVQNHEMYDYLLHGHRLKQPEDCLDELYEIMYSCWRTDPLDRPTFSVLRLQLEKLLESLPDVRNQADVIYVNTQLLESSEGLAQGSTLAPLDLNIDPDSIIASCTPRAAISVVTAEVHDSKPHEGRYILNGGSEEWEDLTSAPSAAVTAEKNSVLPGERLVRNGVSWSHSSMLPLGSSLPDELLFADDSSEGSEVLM
In short: as §1

[3] = ratio calculated as FLT3 IC50/Mer IC50
[4] = ratio of Mer to FLT3: FLT3 IC50/Mer IC50

COC[C@H](C)Nc1ncc2c(-c3ccnc(N4CCO[C@H](C(C)(C)O)C4)c3)cc([C@H]3CC[C@H](O)CC3)n2n1 [Compound 558]
IC50 [1]: ≤ 100 nM
IC50 [2]: ≤ 100 nM
FLT3/Mer ratio (FLT3 IC50/Mer IC50) [2, 3]: +++ (“+++” represents a ratio of >100)

COC[C@H](C)Nc1ncc2c(-c3cnn(C4COC4)c3)cc(C3CCC(F)(F)CC3)n2n1 [Compound 515]
IC50 [1]: 100 to 1000 nM
IC50 [2]: ≤ 100 nM
FLT3/Mer ratio (FLT3 IC50/Mer IC50) [2, 3]: +++ (“+++” represents a ratio of >100)

CCS(=O)(=O)N1CC(CC#N)(n2cc(-c3cc([C@H]4CC[C@H](O)CC4)n4nc(N[C@@H](C)COC)ncc34)cn2)C1 [Compound 567]
IC50 [1]: ≤ 100 nM
IC50 [2]: ≤ 100 nM
FLT3/Mer ratio (FLT3 IC50/Mer IC50) [2, 3]: +++ (“+++” represents a ratio of >100)

COC[C@H](C)Nc1ncc2c(-c3ccnc(N4CCc5cnn(C)c5C4)c3)cc([C@H]3CC[C@H](O)CC3)n2n1 [Compound 518]
IC50 [1]: ≤ 100 nM
IC50 [2]: ≤ 100 nM
FLT3/Mer ratio (FLT3 IC50/Mer IC50) [2, 3]: +++ (“+++” represents a ratio of >100)

COC[C@H](C)Nc1ncc2c(-c3cnn(C(C)(C)C(=O)N4C[C@@H](C)N[C@@H](C)C4)c3)cc([C@H]3CC[C@@H](O)CC3)n2n1 [Compound 591]
IC50 [1]: ≤ 100 nM
IC50 [2]: ≤ 100 nM
FLT3/Mer ratio (FLT3 IC50/Mer IC50) [2, 3]: +++ (“+++” represents a ratio of >100)

COC[C@H](C)Nc1ncc2c(-c3cnn(C4COC4)c3)cc([C@@H]3CC[C@H](O)C(C)(C)C3)n2n1 [Compound 571]
IC50 [1]: 100 to 1000 nM
IC50 [2]: ≤ 100 nM
FLT3/Mer ratio (FLT3 IC50/Mer IC50) [2, 3]: ++ (“++” represents a ratio of between 10 and 100)

CC[C@H](C)Nc1ncc2c(C3CCNCC3)cc([C@H]3CC[C@H](O)CC3)n2n1 [Compound 135, (trans)-4-(2-((S)-sec-butylamino)-5-(piperidin-4-yl)pyrrolo[2,1-f][1,2,4]triazin-7-yl)cyclohexanol]
IC50 [1]: ≤ 100 nM
IC50 [2]: ≤ 100 nM
FLT3/Mer ratio (FLT3 IC50/Mer IC50) [2, 4]: +++ (“+++” represents a ratio of >100)

COCC(C)Nc1ncc2c(-c3ccc4ocnc4c3)cc(C3CCC(O)CC3)n2n1 (stereo not drawn) [Compound 550]
IC50 [1]: ≤ 100 nM
IC50 [2]: ≤ 100 nM
FLT3/Mer ratio (FLT3 IC50/Mer IC50) [2, 3]: +++ (“+++” represents a ratio of >100)

C[C@@H](CC(F)(F)F)Nc1ncc2c(-c3ccnc([S@@](C)(=N)=O)c3)cc([C@H]3CC[C@H](O)CC3)n2n1 [Compound 581]
IC50 [1]: ≤ 100 nM
IC50 [2]: ≤ 100 nM
FLT3/Mer ratio (FLT3 IC50/Mer IC50) [2, 3]: +++ (“+++” represents a ratio of >100)

COCC(C)Nc1ncc2c(-c3cccc(-c4nnc(C)o4)c3)cc(C3CCC(O)CC3)n2n1 (stereo not drawn) [Compound 551]
IC50 [1]: ≤ 100 nM
IC50 [2]: ≤ 100 nM
FLT3/Mer ratio (FLT3 IC50/Mer IC50) [2, 3]: +++ (“+++” represents a ratio of >100)

CCCCC[C@H](C)Nc1ncc2c([C@H]3CC[C@@H](C(=O)N4CCS(=O)(=O)CC4)CC3)cc([C@H]3CC[C@H](O)CC3)n2n1 [Compound 137]
IC50 [1]: ≤ 100 nM
IC50 [2]: ≤ 100 nM
FLT3/Mer ratio (FLT3 IC50/Mer IC50) [2, 4]: +++ (“+++” represents a ratio of >100)

COCC(C)Nc1ncc2c(-c3cccc(N4CCOCC4)c3)cc(C3CCC(O)CC3)n2n1 (stereo not drawn) [Compound 562]
IC50 [1]: ≤ 100 nM
IC50 [2]: ≤ 100 nM
FLT3/Mer ratio (FLT3 IC50/Mer IC50) [2, 3]: +++ (“+++” represents a ratio of >100)

COC[C@H](C)Nc1ncc2c(-c3cnn(C(C)(C)c4nnc(C5CC5)o4)c3)cc([C@H]3CC[C@H](O)CC3)n2n1 [Compound 563]
IC50 [1]: ≤ 100 nM
IC50 [2]: ≤ 100 nM
FLT3/Mer ratio (FLT3 IC50/Mer IC50) [2, 3]: +++ (“+++” represents a ratio of >100)

COC[C@H](C)Nc1ncc2c(-c3cnn(C4COC4)c3)cc([C@@H]3CC[C@@H](O)[C@H](C)C3)n2n1 [Compound 589]
IC50 [1]: ≤ 100 nM
IC50 [2]: ≤ 100 nM
FLT3/Mer ratio (FLT3 IC50/Mer IC50) [2, 3]: +++ (“+++” represents a ratio of >100)

CC[C@H](C)Nc1ncc2c(C3CCN(c4nccc(C)n4)CC3)cc([C@H]3CC[C@H](O)CC3)n2n1 [Compound 136, (trans)-4-(2-((S)-sec-butylamino)-5-(1-(4-methylpyrimidin-2-yl)piperidin-4-yl)pyrrolo[2,1-f][1,2,4]triazin-7-yl)cyclohexanol]
IC50 [1]: 100 to 1000 nM
IC50 [2]: ≤ 100 nM
FLT3/Mer ratio (FLT3 IC50/Mer IC50) [2, 4]: +++ (“+++” represents a ratio of >100)

C[C@@H](CC(F)(F)F)Nc1ncc2c(-c3cncc([S@@](C)(=N)=O)c3)cc([C@H]3CC[C@H](O)CC3)n2n1 [Compound 583]
IC50 [1]: ≤ 100 nM
IC50 [2]: ≤ 100 nM
FLT3/Mer ratio (FLT3 IC50/Mer IC50) [2, 3]: +++ (“+++” represents a ratio of >100)

COC[C@H](C)Nc1ncc2c(-c3cnn(C4COC4)c3)cc([C@@H]3CC[C@H](O)[C@@H](C)C3)n2n1 [Compound 588]
IC50 [1]: 100 to 1000 nM
IC50 [2]: ≤ 100 nM
FLT3/Mer ratio (FLT3 IC50/Mer IC50) [2, 3]: ++ (“++” represents a ratio of between 10 and 100)

COC[C@H](C)Nc1ncc2c(-c3ccnc([S@@](C)(=N)=O)c3)cc([C@H]3CC[C@H](O)CC3)n2n1 [Compound 574]
IC50 [1]: 100 to 1000 nM
IC50 [2]: ≤ 100 nM
FLT3/Mer ratio (FLT3 IC50/Mer IC50) [2, 3]: +++ (“+++” represents a ratio of >100)

COC[C@H](C)Nc1ncc2c([C@H]3CC[C@@H](C(=O)N4CCC(F)(F)CC4)CC3)cc([C@H]3CC[C@H](O)CC3)n2n1 [Compound 577]
IC50 [1]: ≤ 100 nM
IC50 [2]: ≤ 100 nM
FLT3/Mer ratio (FLT3 IC50/Mer IC50) [2, 3]: +++ (“+++” represents a ratio of >100)

CC[C@]1(O)CC[C@H](c2cc(-c3ccnc(N4CCOCC4)c3)c3cnc(N[C@@H](C)COC)nn32)CC1 [Compound 568]
IC50 [1]: ≤ 100 nM
IC50 [2]: ≤ 100 nM
FLT3/Mer ratio (FLT3 IC50/Mer IC50) [2, 3]: +++ (“+++” represents a ratio of >100)

CCN(C(=O)N1CCN(c2cc(-c3cc([C@H]4CC[C@H](O)CC4)n4nc(N[C@@H](C)COC)ncc34)ccn2)CC1)C(C)C [Compound 514]
IC50 [1]: ≤ 100 nM
IC50 [2]: ≤ 100 nM
FLT3/Mer ratio (FLT3 IC50/Mer IC50) [2, 3]: +++ (“+++” represents a ratio of >100)

COC[C@H](C)Nc1ncc2c(-c3cnn(C4COC4)c3)cc([C@@H]3CC[C@@H](O)C(C)(C)C3)n2n1 [Compound 570]
IC50 [1]: 100 to 1000 nM
IC50 [2]: ≤ 100 nM
FLT3/Mer ratio (FLT3 IC50/Mer IC50) [2, 3]: ++ (“++” represents a ratio of between 10 and 100)
